Assay results published in patent US20030170643A1, “Regulation of apoB treatment and drug screening for cardiovascular and metabolic disorders or syndromes” (priority 1999, published 2003).

Biological target: T1, purified bovine MTP (Bos taurus, UniProt P55156)
T1 sequence (P55156 12-887): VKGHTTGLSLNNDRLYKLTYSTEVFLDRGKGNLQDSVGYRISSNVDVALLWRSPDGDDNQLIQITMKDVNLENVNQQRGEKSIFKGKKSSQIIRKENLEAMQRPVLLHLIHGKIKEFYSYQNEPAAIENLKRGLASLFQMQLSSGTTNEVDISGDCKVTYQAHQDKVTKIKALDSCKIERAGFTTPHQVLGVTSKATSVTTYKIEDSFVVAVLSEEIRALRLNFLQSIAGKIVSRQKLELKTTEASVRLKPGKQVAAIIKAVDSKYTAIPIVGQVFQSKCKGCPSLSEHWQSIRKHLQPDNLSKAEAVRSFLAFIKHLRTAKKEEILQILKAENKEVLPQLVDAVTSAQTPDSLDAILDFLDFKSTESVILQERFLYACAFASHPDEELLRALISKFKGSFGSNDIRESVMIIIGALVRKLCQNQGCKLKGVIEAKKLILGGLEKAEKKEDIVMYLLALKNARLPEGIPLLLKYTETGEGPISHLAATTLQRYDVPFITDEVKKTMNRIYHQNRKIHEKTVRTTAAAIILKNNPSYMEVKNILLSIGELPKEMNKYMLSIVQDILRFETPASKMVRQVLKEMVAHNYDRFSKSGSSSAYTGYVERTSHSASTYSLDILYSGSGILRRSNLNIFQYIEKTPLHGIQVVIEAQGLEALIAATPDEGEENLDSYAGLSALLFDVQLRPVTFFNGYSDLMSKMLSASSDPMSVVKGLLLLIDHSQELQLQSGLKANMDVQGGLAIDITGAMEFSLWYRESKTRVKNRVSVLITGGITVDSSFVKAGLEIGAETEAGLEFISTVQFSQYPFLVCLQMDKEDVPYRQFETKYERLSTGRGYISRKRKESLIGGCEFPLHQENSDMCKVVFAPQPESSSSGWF
T1 sequence (P05307 21-510 partner): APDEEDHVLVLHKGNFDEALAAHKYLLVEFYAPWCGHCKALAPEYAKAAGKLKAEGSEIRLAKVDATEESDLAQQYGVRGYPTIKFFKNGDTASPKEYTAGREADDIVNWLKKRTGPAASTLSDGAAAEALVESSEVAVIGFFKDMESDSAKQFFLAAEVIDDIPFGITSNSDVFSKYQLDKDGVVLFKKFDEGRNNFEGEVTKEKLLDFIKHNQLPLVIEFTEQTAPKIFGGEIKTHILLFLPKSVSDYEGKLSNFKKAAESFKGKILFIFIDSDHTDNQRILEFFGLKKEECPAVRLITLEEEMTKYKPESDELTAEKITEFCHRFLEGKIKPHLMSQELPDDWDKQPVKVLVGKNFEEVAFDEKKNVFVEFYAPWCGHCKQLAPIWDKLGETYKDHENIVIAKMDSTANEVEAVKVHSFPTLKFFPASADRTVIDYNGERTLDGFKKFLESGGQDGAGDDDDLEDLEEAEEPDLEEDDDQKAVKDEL
Assay: MTP-mediated transfer of lipid classes biosynthetically labeled with OA or EPA (donor/acceptor vesicles)
Type: biochemical
Method: FIG. 5 illustrates that Ω-3 lipids are good substrates for MTP-mediated lipid transfer. HepG2 cells were incubated for 14 hr at 37° C. with ^14C-labeled oleate (OA) or ^14C-labeled EPA complexed to BSA (final concentration of either fatty acid was 0.8 mM). Total lipids were extracted from the washed cell monolayers and separated by preparative TLC into triglyceride (TG), cholesteryl ester (CE), phosphatidylcholine (PC), and phosphatidylethanolamine (PE). The isolated lipid classes were then incorporated (to a content of 0.5 mol %) into vesicles that were used as donors in lipid transfer assays with recombinant MTP. Results were normalized to the transfer of [^14C]triolein and are shown as mean values ±SE (n=4).
Three methods were used to assess possible effects of Ω-3 fatty acids on cellular MTP function. First, rat primary hepatocytes were incubated with BSA, OA, or EPA, and then MTP activity in cell lysates was measured using a fluorescent assay (Roar Biomedical, New York, NY). Second, to determine if lipid classes synthesized in the presence of OA or Ω-3 fatty acid are equivalent substrates for MTP, primary rat hepatocytes or HepG2 cells were incubated with tritiated OA or EPA, total cellular lipids were extracted into isopropanol, and biosynthetically labeled cholesteryl ester, triglyceride, and phospholipids were separated by preparative thin layer chromatography. Each of these isolated lipids was incorporated into vesicles that were used as donors in a transfer reaction with acceptor vesicles and […] of purified bovine MTP, as described in Jamil, H., Dickson, J. K., Jr., Chu, C. H., Lago, M. W., Rinehart, J. K., Biller, S. A., Gregg, R. E., and Wetterau, J. R. (1995) J Biol Chem 270(12), 6549-54. As an internal control for lipid transfer, each donor vesicle also contained [^14C]triolein. Third, to determine if Ω-3 lipids inhibit MTP-mediated transfer of non-Ω-3 lipids, artificial donor vesicles were prepared containing either labeled triolein or labeled POPC. The majority of lipid mass in these vesicles was unlabeled phosphatidylcholine that contained either 100% oleate esterified at the sn-2 position (control) or a mixture of 70% oleate and 30% DHA or 30% EPA. Transfer of the labeled lipids to acceptor vesicles in the presence of 50 μg of purified bovine MTP was measured as described in Jamil, H. et al (1995) J Biol Chem 270(12), 6549-54.
An intracellular abundance of relatively poor lipid substrates, produced during incubations of hepatocytes with EPA or DHA, could be functionally equivalent to MTP inhibition. Thus, rat primary hepatocytes and HepG2 cells were incubated with radiolabeled OA or EPA to allow incorporation of these fatty acids into lipid esters. […]

CCCCCCCC/C=C\CCCCCCCC(=O)O [OA, oleic acid]
MTP-mediated transfer of labeled cholesteryl esters, % of [14C]triolein transfer (lipids from fatty acid-treated HepG2 cells, P=0.07): 20%+4% | MTP-mediated transfer of labeled phosphatidylethanolamines, % of [14C]triolein transfer (lipids from fatty acid-treated HepG2 cells, P=0.6): 1.1%+0.1% | MTP-mediated transfer of labeled phosphatidylcholines, % of [14C]triolein transfer (lipids from fatty acid-treated HepG2 cells, P=0.7): 2.3%+1% | MTP-mediated transfer rate of labeled triglycerides, % of [14C]triolein transfer (lipids harvested from fatty acid-treated HepG2 cells, P=0.3): 60%±8%
